According to patent US8686156B2, “Thiazole derivatives as pesticides” (priority 2010, dated 2014):

Assays:
[1] = logP determination by HPLC (formic acid method); type: physicochemical; settings: reversed-phase HPLC column (C18), reversed-phase column (C 18), 55° C., acidic range (pH 3.4), read-out: log P(HCOOH)
Method: 1) Description of the Method for Determining the logP Values (Formic Acid Method) The logP values were determined in accordance with EEC Directive 79/831 Annex V.A8 by HPLC (High Performance Liquid Chromatography) using a reversed-phase column (C 18). Temperature: 55° C. Mobile phases for determination in the acidic range (pH 3.4): Mobile phase A: acetonitrile+1 ml of formic acid/litre. Mobile phase B: water+0.9 ml of formic acid/litre. Gradient: 10% mobile phase A/90% mobile phase B to 95% mobile phase A/5% mobile phase B over 4.25 min. Calibration was carried out using unbranched alkan-2-ones (having from 3 to 16 carbon atoms) with known logP values (the logP values were determined by the retention times using linear interpolation between two successive alkanones). The lambda max values were determined in the maxima of the chromatographic signals using the UV spectra from 200 nm to 400 nm.

[2] = tested on: green peach aphid (Myzus persicae); assay: Myzus test, spray treatment; type: in vivo; settings: application rate of 500 g/ha; spray treatment of Chinese cabbage discs; after 6 days
Method: Myzus Test Spray Treatment Solvent: 78 parts by weight of acetone • • 1.5 parts by weight of dimethylformamide Emulsifier: 0.5 part by weight of alkylaryl polyglycol ether To produce a suitable preparation of active compound, 1 part by weight of active compound is mixed with the stated amounts of solvent and emulsifier, and the concentrate is diluted with emulsifier-containing water to the desired concentration. Discs of Chinese cabbage (Brassica pekinensis) infected by all stages of the green peach aphid (Myzus persicae) are sprayed with an active compound preparation of the desired concentration. After 6 days, the effect in % is determined. 100% means that all of the aphids have been killed; 0% means that none of the aphids have been killed.

SMILES: Clc1nc(-c2cccnc2)sc1-c1cccc(-c2ncccn2)n1 [2-{6-[4-Chloro-2-(pyridin-3-yl)-1,3-thiazol-5-yl]pyridin-2-yl}pyrimidine]
- chromatographic logP [1]: 2.27

SMILES: Clc1cnc(-c2cccc(-c3sc(-c4cccnc4)nc3Cl)n2)nc1 [5-Chloro-2-{6-[4-chloro-2-(pyridin-3-yl)-1,3-thiazol-5-yl]pyridin-2-yl}pyrimidine]
- chromatographic logP [1]: 3.27

SMILES: Fc1nc(-c2cccnc2)sc1-c1cccc(-c2ncccn2)n1 [Example 1, 2-[6-(4-Fluoro-2-pyridin-3-ylthiazol-5-yl)pyridin-2-yl]pyrimidine]
- effect in % (100% means that all of the aphids have been killed) [2]: 100%
- chromatographic logP [1]: 2.15
